Measured values from publication doi:10.1101/2022.06.02.493408v1 (biorxiv, 2022).

Biological target: T1, WT BetP (AMP-BetP) (Corynebacterium glutamicum, UniProt P54582)
T1 sequence (P54582 1-595): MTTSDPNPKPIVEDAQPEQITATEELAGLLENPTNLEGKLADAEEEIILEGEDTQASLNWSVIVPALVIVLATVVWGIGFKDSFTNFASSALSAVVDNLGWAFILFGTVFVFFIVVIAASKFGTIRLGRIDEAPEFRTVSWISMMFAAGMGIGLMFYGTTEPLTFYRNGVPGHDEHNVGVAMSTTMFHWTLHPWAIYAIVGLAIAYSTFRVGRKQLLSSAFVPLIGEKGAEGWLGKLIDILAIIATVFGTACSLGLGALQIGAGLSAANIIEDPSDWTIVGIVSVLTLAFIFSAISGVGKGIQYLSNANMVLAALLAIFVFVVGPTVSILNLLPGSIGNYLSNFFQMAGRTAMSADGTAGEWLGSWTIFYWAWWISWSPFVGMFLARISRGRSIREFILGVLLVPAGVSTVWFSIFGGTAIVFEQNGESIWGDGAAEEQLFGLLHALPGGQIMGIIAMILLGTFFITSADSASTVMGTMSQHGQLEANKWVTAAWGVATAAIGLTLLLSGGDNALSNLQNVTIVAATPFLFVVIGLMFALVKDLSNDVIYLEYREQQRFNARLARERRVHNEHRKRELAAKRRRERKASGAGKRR
Assay: biochemical

C[N+](C)(C)CC(=O)[O-] [betaine]
Kd: 188 ± 34 µM
